Measurements published in patent US4939142A, “Substituted styrene derivatives” (priority 1989, dated 1990).
Like-named read-outs stand apart in the source and are kept apart here.

Tests used:
[1] = in vivo; conditions: mouse, in vivo, po
Description: Male and female white mice (CFLP strain, 18-22 g) are used, 10 animals per dose. The test compounds are administered orally in a volume of 20 ml/kg. After administration the mice are observed for a period of 7 days. The animals are kept in plastic boxes, on wood litter, at room temperature. The animals receive standard mouse fodder and tap water ad libitum.

[2] = test system: motility; test: animal or person; format: in vivo; conditions: for ED50: Mus musculus, po; for Therapeutical index: Table II, motility inhibition, LD50/ED50
Description: The test is accomplished according to the method of Borsy et al. in a 10-channel Dews system equipment, whereby 3 mice are used per channel. The test compound or the carrier, respectively, is administered orally, and one hour after the said treatment the animals are placed into the apparatus and the number of the interruptions of infrared radiation is registered for 30 minutes.
The results are summarized in Table II and documented by means of suitable statistics for each experiment.
[J. Borsy, E. Csanyi, I. Lazar: Arch. Int. Pharmacodyn. 124, 1 (1960)].

[3] = test system: acetic acid writhing; test: Acetic acid "writhing test" on mice (Newbould); format: in vivo, white mice; conditions: for ED50: Mus musculus; for Therapeutical index: acetic acid writhing, LD50/ED50
Description: In the period between the 5th and 10th minutes following the administration of acetic acid the number of the characteristic "writhing" responses is counted for each animal and the "total writhing number" (within 5 minutes) is expressed as the percentage of the value obtained for the control animals. The mice are treated with the test compound and the carrier, respectively, orally 1 hour before the administration of acetic acid. 12 animals are used per dose.
[Newbould, B. D.: Brit.

[4] = test system: pentetrazole spasm; test: Inhibition of pentetrazol spasm on mice; conditions: for ED50: Mus musculus, po; for Therapeutical index: Table V, pentetrazole spasm, LD50/ED50
Description: The modified method of Benziger and Hane is used on white mice. Groups consisting of 6 animals are used for each dose. […] The test compounds are administered orally one hour before the treatment with pentetrazole; in the control group the animals obtain the carrier orally at the same points of time.
The therapeutical index data disclosed in the above Tables are calculated by means of the following equation: [formula]

[5] = test system: hexobarbital narcosis; test: Hexobarbital narcosis potentiating effect; conditions: for ED50: Mus musculus, po; for Therapeutical index LD50 /ED50: Table I, hexobarbital narcosis
Description: The test is carried out on white mice. Groups consisting of six mice are used for each dose and test compound. The test compound is administered orally and an hour after this treatment narcosis is induced by means of a 40 mg/kg i.v. dose of hexobarbital. The control group receives carrier instead of the test compound.
Those mice are considered to be having a positive reaction which show a narcosis time at least 2.5 times longer than that of the control group. The ED50 values thus transformed are calculated.

[6] = test system: nicotine spasm and lethality; test: Inhibition of nicotine spasm and lethality on mice (Stone); format: in vivo; conditions: Table VIII; for ED50: Mus musculus, oral, 1 h before nicotine 1.4 mg/kg i.v.; for Therapeutical index: nicotine spasm and lethality, LD50/ED50
Source text: [Stone, C. C., Mecklenburg, K. L., Torchiana, M. L.: Arch. Int.

[7] = test system: yohimbin toxicity; test: animal or person; conditions: for ED50: Mus musculus; for Therapeutical index: Table IV, yohimbin toxicity, LD50/ED50
Description: The test is carried out according to the method of Quinton. Groups consisting of 10 mice are used for each dose. The animal groups are treated with the suitable doses of the test compounds while the control group is treated with a carrier. An hour after the treatment a sublethal dose of yohimbin is administered intraperitoneally in a volume of 20 ml/kg. The perished animals are counted after 1 and 24 hours.

[8] = Table VII, oral, 1 h before acetic acid i.p., read-out: ED50

| SMILES | LD50 at 168 h [1] | ED50 [4] | Therapeutical index [4] | ED50 [5] | also measured |
| --- | --- | --- | --- | --- | --- |
| COc1ccc(/C=C/C2=CC(=N/OCC(C)CN(C)C)/CC(C)(C)C2)cc1 (racemic) [Example 25, D,L-5,5-Dimethyl-3-(E)-[(4'-methoxy-phenyl)-vinyl]-1-(E)-(2"-methyl-3"-dimethylamino-propoxyimino)-2-cyclohexane] | 1300 mg/kg | 15.5 mg/kg | 83.9 | – | ED50 [2]: ~200 mg/kg; Therapeutical index [2]: 6.5; ED50 ([3]; po): ~200 mg/kg; Therapeutical index ([3]; Table VII): 65 |
| CNC1=Nc2ccc(Cl)cc2C(c2ccccc2)=[N+]([O-])C1 [Chlordiazepoxid, reference compound] | 620 mg/kg | – | – | 10 mg/kg | Therapeutical index LD50 /ED50 [5]: 62.0 |
| CN1CCN(CCCO/N=C2C=C(/C=C/c3ccccc3)CC(C)(C)C/2)CC1 [Example 2, 5,5-Dimethyl-3-(E)-phenyl-vinyl-1-(E)-(4'-methyl-1'-piperazinyl-propoxyimino)-2-cyclohexene] | 2000 mg/kg | 140 mg/kg | 14.3 | – | ED50 [2]: 190 mg/kg; Therapeutical index [2]: 10.5; ED50 [6]: 78 mg/kg; Therapeutical index [6]: 25.6 |
| CN1CCN(CCCO/N=C2C=C(/C=C/c3ccc(Cl)cc3)CC(C)(C)C/2)CC1 [Example 4, 5,5-Dimethyl-3-(E)-[(4'-chloro-phenyl)-vinyl]-1-(E)-(4"-methyl-1"-piperazinyl-propoxyimino)-2-cyclohexene] | 2000 mg/kg | 180 mg/kg | 11.1 | – | – |
| CN(C)CCCO/N=C1C=C(/C=C/c2ccc(Cl)cc2)CC(C)(C)C/1 [Example 5, 5,5-Dimethyl-3-(E)-[(4'-chloro-phenyl)-vinyl]-1-(E)-(3"-dimethylamino-propoxyimino)-2-cyclohexene] | 2000 mg/kg | 125 mg/kg | 16.0 | – | ED50 [2]: 120 mg/kg; Therapeutical index [2]: 17.0; ED50 [3, 8]: 155 mg/kg; Therapeutical index ([3]; Table VII): 12.9 |
| CN(C)CCCO/N=C1C=C(/C=C/c2c(Cl)cccc2Cl)CC(C)(C)C/1 [Example 7, 5,5-Dimethyl-3-[(2',6'-dichloro-phenyl)-vinyl]-1-(E)-(3"-dimethylamino-propoxyimino)-2-cyclohexene] | 2000 mg/kg | 80 mg/kg | 25.0 | – | ED50 [7]: 60 mg/kg; Therapeutical index [7]: 33.3; Therapeutical index [6]: 25 |
| CN(C)CCCO/N=C1C=C(/C=C/c2ccccc2Cl)CC(C)(C)C/1 [Example 9, 5,5-Dimethyl-3-(E)-[(2'-chloro-phenyl)-vinyl]-1-(E)-(3"-dimethylamino-propoxyimino)-2-cyclohexene] | 2000 mg/kg | 160 mg/kg | 12.5 | – | ED50 [7]: 50 mg/kg; Therapeutical index [7]: 40 |
| COc1ccc(/C=C/C2=CC(=N/OCCCN(C)C)/CC(C)(C)C2)cc1OC [Example 10, 5,5-Dimethyl-3-(E)-[(3',4'-dimethoxy-phenyl)-vinyl]-1-(E)-(3"-dimethylamino-propoxyimino)-2-cyclohexene] | 1000 mg/kg | – | – | – | ED50 [2]: 60 mg/kg; Therapeutical index [2]: 16.7; ED50 [7]: 40 mg/kg; Therapeutical index [7]: 25; ED50 [3, 8]: 153 mg/kg; Therapeutical index ([3]; Table VII): 6.5 |
| COc1ccc(/C=C/C2=CC(=N/OCCCN(C)C)/CC(C)(C)C2)cc1 [Example 11, 5,5-Dimethyl-3-(E)-[(4'-methoxy-phenyl)-vinyl]-1-(E)-(3"-dimethylamino-propoxyimino)-2-cyclohexene] | 2000 mg/kg | 78 mg/kg | 25.6 | 140 mg/kg | ED50 [7]: 40 mg/kg; Therapeutical index [7]: 50; Therapeutical index LD50 /ED50 [5]: 14.3 |
| CC(C)N(CCO/N=C1C=C(/C=C/c2ccccc2)CC(C)(C)C/1)C(C)C [Example 12] | 1000 mg/kg | 23 mg/kg | 43.5 | 100 mg/kg | ED50 [3, 8]: 50 mg/kg; Therapeutical index ([3]; Table VII): 20.0 |
| CC(C)N(CCO/N=C1C=C(/C=C/c2ccc(Cl)cc2)CC(C)(C)C/1)C(C)C [Example 14, 5,5-Dimethyl-3-(E)-[(4'-chloro-phenyl)-vinyl]-1-(E)-2'"-[bis-(2"-methyl-ethyl)-amino-ethoxyimino]-2-cyclohexene] | 2000 mg/kg | 70 mg/kg | 28.5 | – | – |
| CN(C)CCO/N=C1C=C(/C=C/c2ccc(Cl)cc2)CC(C)(C)C/1 [Example 15, 5,5-Dimethyl-3-(E)-[(4'-chloro-phenyl)-vinyl]-1-(E)-(2"-dimethylamino-ethoxyimino)-cyclohexene] | 2000 mg/kg | 120 mg/kg | 16.6 | 25 mg/kg | ED50 [6]: 70 mg/kg; Therapeutical index [6]: 28.6; Therapeutical index LD50 /ED50 [5]: 80.0 |
| CC1(C)CC(/C=C/c2ccccc2)=CC(=N/OCCN2CCCCC2)/C1 [Example 16, 5,5-Dimethyl-3-(E)-phenyl-vinyl-1-(E)-(2'-N-piperidyl-ethyl)-oxyimino-2-cyclohexene] | 1850 mg/kg | 185 mg/kg | 10.0 | 40 mg/kg | ED50 [2]: 150 mg/kg; Therapeutical index [2]: 12.3; ED50 [6]: 70 mg/kg; Therapeutical index [6]: 26.4; Therapeutical index LD50 /ED50 [5]: 46.0 |
| CC1(C)CC(/C=C/c2ccccc2)=CC(=N/OCCN2CCOCC2)/C1 [Example 17, 5,5-Dimethyl-3-(E)-phenyl-vinyl-1-(E)-(N-morpholino-ethoxyimino)-2-cyclohexene] | 1600 mg/kg | 148 mg/kg | 10.8 | 13 mg/kg | ED50 [6]: 40 mg/kg; Therapeutical index [6]: 40.0; Therapeutical index LD50 /ED50 [5]: 123.0 |
| CCN(CC)CCO/N=C1C=C(/C=C/c2ccc(OC)cc2)CC(C)(C)C/1 [Example 23, 5,5-Dimethyl-3-(E)-[(4'-methoxy-phenyl)-vinyl]-1-(E)-(2"-diethylamino-ethoxyimino)-2-cyclohexene] | 1000 mg/kg | 58 mg/kg | 17.2 | – | – |
| CC1(C)CC(/C=C/c2ccc(Cl)cc2)=CC(=N/OCCCN2CCOCC2)/C1 [Example 24, 5,5-Dimethyl-3-(E)-[(4'-chloro-phenyl)-vinyl]-1-(E)-(N-morpholino-propoxyimino)-2-cyclohexane] | > 1000 mg/kg | 110 mg/kg | > 9.1 | – | – |
| CN(C)CCCN1c2ccccc2CCc2ccccc21 [Imipramin, reference compound] | – | – | – | – | ED50 [7]: 21 mg/kg |
| CCCC(C)(COC(N)=O)COC(N)=O [Meprobamate, reference compound] | – | – | – | 260 mg/kg | ED50 [2]: 270 mg/kg; Therapeutical index LD50 /ED50 [5]: 4.2 |
| CC(=O)Nc1ccc(O)cc1 [Paracetamol, reference compound] | – | – | – | – | ED50 [3, 8]: 180 mg/kg |
| OC(CCN1CCCCC1)(c1ccccc1)C1CCCCC1 (stereo not shown) [Trihexyphenidyl, reference compound] | – | – | – | – | ED50 [6]: 20 mg/kg |
| CCOc1ccccc1OCC1CNCCO1 (stereo not shown) [Viloxazin, reference compound] | – | – | – | – | ED50 [7]: 20 mg/kg |
